From US4659716A, “Antihistaminic 8-(halo)-substituted 6,11-dihydro-11-(4-piperidylidene)-5H-benzo[5,6]cyclohepta[1,2-b]pyridin es” (Schering Corporation, priority 1986, dated 1987)

Assays:
[1] = test system: histamine-induced paw edema; assay: Histamine-induced paw edema in mice (oral); assay type: in vivo, mice (male CF1)
Experimental: For example, the ability of the compounds to reduce histamine-induced paw edema in mice may be measured by use of the following method.
Male CF1 mice, 25-30 g, are housed under conditions of controlled temperature and humidity with a 12 hour dark/light cycle. Food and water are allowed ad libitum. The mice are randomly assigned to the treatment groups. One hour after treatment with a compound of the invention or vehicle, the mice are lightly anesthetized with ether. The left hind paw of each mouse serves as a control and is injected with 25 μl of isotonic saline. The right hind paw serves as the experimental paw and is injected with 25 μl of isotonic saline containing 13 μg histamine dihydrochloride. Thirty minutes later the mice are killed by cervical dislocation and both hind paws of each mouse are removed by cutting at the tarsal joint. The weight of each paw is recorded and the difference in weight between the compound-treated and the placebo-treated groups is evaluated using Student's "t" test. The ED50 values (the dose causing 50% inhibition of histamine-induced edema) and 95% confidence limits are determind by the Linear Least Square Dose-Response method [Brownlee, K. A., "Statistical Theory And Methodology In Science and Engineering", 2nd Ed., J. Wiley and Sons, New York, 1965, pp. 346-349].

[2] = test system: behavior, neurologic function and autonomic function in mice; details: po; score of 2 or greater in at least 3 of 6 animals
From the text: A semiquantitative scoring scale was used where signs normally present (e.g., spontaneous activity, alertness, pupil size) were assigned a "normal" score of 0 and scores of +1, +2 and +3 indicated slight, moderate and marked increases and scores of -1, -2 and -3 indicated slight, moderate and marked decreases from "normality". When a sign occurred that is not normally present (e.g., convulsions, tremors), its magnitude was graded on a 1-3 scale. Each treatment group consisted of 6 animals and evaluations were conducted 1 hour after dosing. Additional observations for lethality were made for up to 24 hours after dosing. Incidence is defined as the observation occurring in an animal with a score of 2 or greater according to the scoring method defined above.
^a Minimal effective dose, defined as the lowest dose that produced a

[3] = Antagonism of physostigmine lethality (B); assay type: in vivo, mice; details: mouse, physostigmine-induced lethality; oral, unit inferred; read-out: ED50 in the physostigmine-induced lethality test
Experimental: B. Antagonism of Physostigmine Lethality. […] Physostigmine salicylate (b 1.0 mg/kg s.c.) produces 100% lethality when administered to mice grouped 10 per plastic cage (11×26×13 cm). Test agents were administered orally 30 minutes prior to physostigmine. The number of survivors were counted 20 minutes after physostigmine administration.

CNS activity = assay: CNS test procedures B, C and D taken together; assay type: in vivo, mice; details: oral
Experimental: C. […] Mice were injected with 0.6% aqueous acetic acid at 10 mg/kg i.p. 15 minutes after oral administration of the test drug. The number of writhes for each animal was counted during a 10 minute period starting 3 minutes after acetic acid treatment. A writhe was defined as a sequence of arching of the back, pelvic rotation and hind limb extension.
One hour after oral administration of the test drug or vehicle, mice were administered a 13 mA, 60 cycle a.c. electroconvulsant shock (ECS) for 0.2 seconds via corneal electrodes.

[4] = test system: histamine-induced lethality; assay: Prevention of histamine-induced lethality in guinea pigs (A); assay type: in vivo, guinea pigs (female albino); details: Cavia porcellus; oral, 1 hour prior to i.v. histamine 1.1 mg/kg; read-out: Antihistaminic Activity, A. G. pig. p.o. ED50
Experimental: A. Prevention of histamine-induced lethality in guinea pigs. […] Doses of the antagonists were administered orally to separate groups of fasted animals 1 hour prior to the challenge with histamine and protection from death recorded for 30 minutes after histamine. ED50 values were determined for each drug by […].

[5] = Toxicity (no method given); details: in vivo

| SMILES | Increased Paw Weight, Mean ([1]; oral dose 0.03 mg/kg, 8 animals) | Increased Paw Weight, Mean ([1]; oral dose 0.1 mg/kg, 7 animals) | Increased Paw Weight, Mean ([1]; oral dose 0.3 mg/kg, 8 animals) | Increased Paw Weight, Mean ([1]; oral dose 1.0 mg/kg, 8 animals) | MED, Lethality [2] | ED50 ([1]; Mus musculus, po, 1 h) | ED50 [3] | Activity in all of the CNS test procedures (CNS activity) | ED50 [4] | Toxicity [5] |
| --- | --- | --- | --- | --- | --- | --- | --- | --- | --- | --- |
| Clc1ccc2c(c1)CCc1cccnc1C2=C1CCNCC1 [Compound A, 8-chloro-6,11-dihydro-11-(4-piperidylidene)-5H-benzo[5,6]cyclohepta[1,2-b]pyridine] | 19.9 mg | 13.0 mg | 6.1 mg | 2.5 mg | 300 mg/kg | – | – | – | – | – |
| Fc1ccc2c(c1)CCc1cccnc1C2=C1CCNCC1 [Compound B, 8-fluoro-6,11-dihydro-11-(4-piperidylidene)-5H-benzo[5,6]cyclohepta[1,2-b]pyridine] | – | – | – | – | – | < 3 mg/kg | > 320 mg/kg | relatively inactive | 0.09 mg/kg | very low toxicity |
